According to ChEMBL document CHEMBL1201862, “PubChem BioAssay data set” (2004):
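Assay format: 96-well plates, 48-hour exposure. The concentration for 50% growth inhibition is given as GI50.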 Active and inactive are the calls of the source. No stated cut-off is given here; in the data, active = GI50 up to about 1.1 µM and inactive = higher.

Columns and labels:
Assay in all cases: NCI-60 cell line screen, 48 h
[1] = system: 786-0
[2] = system: A498
[3] = system: A549
[4] = system: ACHN
[5] = system: CAKI-1
[6] = system: CCRF-CEM
[7] = system: COLO 205
[8] = system: DU-145
[9] = system: EKVX
[10] = system: HCC 2998
[11] = system: HCT-116
[12] = system: HCT-15
[13] = system: HL-60
[14] = system: HOP-62
[15] = system: HOP-92
[16] = system: HT-29
[17] = system: Hs-578T
[18] = system: IGROV-1
[19] = system: K562
[20] = system: KM12
[21] = system: LOX IMVI
[22] = system: M14
[23] = system: MCF7
[24] = system: MDA-MB-231
[25] = system: MDA-MB-435
[26] = system: MDA-N
[27] = system: NCI-H226
[28] = system: NCI-H23
[29] = system: NCI-H460
[30] = system: NCI-H522
[31] = system: NCI/ADR-RES
[32] = system: OVCAR-3
[33] = system: OVCAR-4
[34] = system: OVCAR-5
[35] = system: OVCAR-8
[36] = system: PC-3
[37] = system: RPMI-8226
[38] = system: RXF 393
[39] = system: SF-268
[40] = system: SF-295
[41] = system: SF-539
[42] = system: SK-MEL-28
[43] = system: SK-MEL-5
[44] = system: SK-OV-3
[45] = system: SN12C
[46] = system: SNB-19
[47] = system: SNB-75
[48] = system: SR
[49] = system: SW-620
[50] = system: T47D
[51] = system: TK-10
[52] = system: U-251
[53] = system: UACC-257
[54] = system: UACC-62
[55] = system: UO-31
[56] = system: MOLT-4
[57] = system: Malme-3M
[58] = system: SK-MEL-2
[59] = system: BT-549

Compound: CCOP(=O)(OCC)c1cc2cc(O)ccc2oc1=O
- GI50 [1]: > 100 µM (inactive)
- GI50 [2]: > 100 µM (inactive)
- GI50 [3]: > 100 µM (inactive)
- GI50 [4]: > 100 µM (inactive)
- GI50 [5]: > 100 µM (inactive)
- GI50 [6]: > 100 µM (inactive)
- GI50 [7]: > 100 µM (inactive)
- GI50 [8]: > 100 µM (inactive)
- GI50 [9]: > 100 µM (inactive)
- GI50 [10]: > 100 µM (inactive)
- GI50 [11]: > 100 µM (inactive)
- GI50 [12]: > 100 µM
- GI50 [13]: > 100 µM (inactive)
- GI50 [14]: > 100 µM (inactive)
- GI50 [15]: > 100 µM (inactive)
- GI50 [16]: > 100 µM (inactive)
- GI50 [17]: > 100 µM (inactive)
- GI50 [18]: > 100 µM (inactive)
- GI50 [19]: > 100 µM (inactive)
- GI50 [20]: > 100 µM (inactive)
- GI50 [21]: > 100 µM (inactive)
- GI50 [22]: > 100 µM (inactive)
- GI50 [23]: > 100 µM (inactive)
- GI50 [24]: > 100 µM (inactive)
- GI50 [25]: > 100 µM (inactive)
- GI50 [26]: > 100 µM (inactive)
- GI50 [27]: > 100 µM (inactive)
- GI50 [28]: > 100 µM (inactive)
- GI50 [29]: > 100 µM (inactive)
- GI50 [30]: > 100 µM (inactive)
- GI50 [31]: > 100 µM (inactive)
- GI50 [32]: > 100 µM (inactive)
- GI50 [33]: > 100 µM (inactive)
- GI50 [34]: > 100 µM (inactive)
- GI50 [35]: > 100 µM (inactive)
- GI50 [36]: > 100 µM (inactive)
- GI50 [37]: > 100 µM (inactive)
- GI50 [38]: > 100 µM (inactive)
- GI50 [39]: > 100 µM (inactive)
- GI50 [40]: > 100 µM (inactive)
- GI50 [41]: > 100 µM (inactive)
- GI50 [42]: > 100 µM (inactive)
- GI50 [43]: > 100 µM (inactive)
- GI50 [44]: > 100 µM (inactive)
- GI50 [45]: > 100 µM (inactive)
- GI50 [46]: > 100 µM (inactive)
- GI50 [47]: > 100 µM (inactive)
- GI50 [48]: > 100 µM (inactive)
- GI50 [49]: > 100 µM (inactive)
- GI50 [50]: > 100 µM (inactive)
- GI50 [51]: > 100 µM (inactive)
- GI50 [52]: > 100 µM (inactive)
- GI50 [53]: > 100 µM (inactive)
- GI50 [54]: > 100 µM (inactive)
- GI50 [55]: 0.0112 µM (active)

Compound: CCC1=C(c2ccc(OC)cc2)CC[C@@]2(CCNC2=O)[C@@H]1C
- GI50 [1]: > 100 µM (inactive)
- GI50 [2]: > 100 µM (inactive)
- GI50 [3]: > 100 µM (inactive)
- GI50 [4]: > 89.7 µM (inactive)
- GI50 [5]: > 100 µM (inactive)
- GI50 [6]: 57.7 µM (inactive)
- GI50 [7]: > 63.4 µM (inactive)
- GI50 [8]: > 100 µM (inactive)
- GI50 [9]: 59.4 µM (inactive)
- GI50 [10]: > 100 µM (inactive)
- GI50 [11]: 76.2 µM (inactive)
- GI50 [12]: > 100 µM
- GI50 [14]: > 100 µM (inactive)
- GI50 [15]: > 100 µM (inactive)
- GI50 [16]: > 67.6 µM (inactive)
- GI50 [17]: > 52.2 µM (inactive)
- GI50 [18]: > 100 µM (inactive)
- GI50 [19]: 26.5 µM (inactive)
- GI50 [20]: > 94.2 µM (inactive)
- GI50 [21]: > 75 µM (inactive)
- GI50 [22]: > 100 µM (inactive)
- GI50 [23]: 70.8 µM (inactive)
- GI50 [24]: > 100 µM (inactive)
- GI50 [25]: > 61.4 µM (inactive)
- GI50 [26]: > 93.1 µM (inactive)
- GI50 [56]: 24.9 µM (inactive)
- GI50 [57]: 58.7 µM (inactive)
- GI50 [27]: > 100 µM (inactive)
- GI50 [28]: > 43.2 µM (inactive)
- GI50 [29]: > 100 µM (inactive)
- GI50 [30]: 32.4 µM (inactive)
- GI50 [31]: > 74.1 µM (inactive)
- GI50 [32]: > 100 µM (inactive)
- GI50 [33]: > 100 µM (inactive)
- GI50 [34]: > 100 µM (inactive)
- GI50 [35]: > 100 µM (inactive)
- GI50 [36]: > 78.2 µM (inactive)
- GI50 [37]: > 46.1 µM (inactive)
- GI50 [39]: > 100 µM (inactive)
- GI50 [40]: > 55.2 µM (inactive)
- GI50 [41]: > 100 µM (inactive)
- GI50 [42]: > 100 µM (inactive)
- GI50 [58]: > 90.8 µM (inactive)
- GI50 [43]: 22.1 µM (inactive)
- GI50 [44]: > 100 µM (inactive)
- GI50 [45]: > 100 µM (inactive)
- GI50 [46]: > 100 µM (inactive)
- GI50 [47]: > 73.8 µM (inactive)
- GI50 [48]: 24.7 µM (inactive)
- GI50 [49]: > 100 µM (inactive)
- GI50 [50]: > 50.7 µM (inactive)
- GI50 [51]: > 100 µM (inactive)
- GI50 [52]: > 100 µM (inactive)
- GI50 [53]: 28.2 µM (inactive)
- GI50 [54]: > 100 µM (inactive)
- GI50 [55]: > 96.2 µM (inactive)

Compound: O=C(COc1ccc(OCC(=O)N2C(=O)CS/C2=N\c2ccccc2)cc1)N1C(=O)CS/C1=N\c1ccccc1
- GI50 [1]: 19.2 µM (inactive)
- GI50 [2]: 60 µM (inactive)
- GI50 [3]: 23.6 µM (inactive)
- GI50 [4]: 12.5 µM (inactive)
- GI50 [59]: 18 µM (inactive)
- GI50 [5]: 20.6 µM (inactive)
- GI50 [7]: 20.5 µM (inactive)
- GI50 [8]: 30.8 µM (inactive)
- GI50 [9]: 32.8 µM (inactive)
- GI50 [10]: 14.9 µM (inactive)
- GI50 [11]: 10.6 µM (inactive)
- GI50 [12]: 28.1 µM
- GI50 [15]: 26.2 µM (inactive)
- GI50 [16]: 14.4 µM (inactive)
- GI50 [18]: 2.38 µM (inactive)
- GI50 [19]: 5.9 µM (inactive)
- GI50 [20]: 15.3 µM (inactive)
- GI50 [22]: 18.6 µM (inactive)
- GI50 [23]: 19 µM (inactive)
- GI50 [24]: 15.6 µM (inactive)
- GI50 [25]: 23.7 µM (inactive)
- GI50 [26]: 20.7 µM (inactive)
- GI50 [56]: 14.6 µM (inactive)
- GI50 [57]: 4 µM (inactive)
- GI50 [27]: 26.5 µM (inactive)
- GI50 [28]: 19.5 µM (inactive)
- GI50 [29]: 29 µM (inactive)
- GI50 [30]: 11.1 µM (inactive)
- GI50 [31]: 19.5 µM (inactive)
- GI50 [33]: 33.5 µM (inactive)
- GI50 [34]: 12.7 µM (inactive)
- GI50 [36]: 14.8 µM (inactive)
- GI50 [37]: 22.5 µM (inactive)
- GI50 [38]: 30.3 µM (inactive)
- GI50 [39]: 27.5 µM (inactive)
- GI50 [40]: 33.3 µM (inactive)
- GI50 [42]: 5.6 µM (inactive)
- GI50 [58]: 25.9 µM (inactive)
- GI50 [43]: 11.6 µM (inactive)
- GI50 [44]: 48.5 µM (inactive)
- GI50 [45]: 24.8 µM (inactive)
- GI50 [46]: 31.6 µM (inactive)
- GI50 [47]: 90.4 µM (inactive)
- GI50 [49]: 47.9 µM (inactive)
- GI50 [51]: 56.9 µM (inactive)
- GI50 [52]: 31.8 µM (inactive)
- GI50 [53]: 23.7 µM (inactive)
- GI50 [54]: 8.13 µM (inactive)
- GI50 [55]: 25.2 µM (inactive)
